Laboratory results from the supplement of paper PMC9938120.

Tests used:
Assay in all cases: drug sensitivity score (DSS3, normalised partial AUC of % inhibition dose-response) (DSS (score)); higher = more sensitive (stronger inhibition of viability); extreme values may be limits of the assay
Conditions in all cases: 72 h; library: FO5A; assay format: 2D, 384-well, CellTiter-Glo
FMOC24 = system: FMOC24 (patient-derived high-grade serous ovarian cancer cells)
Method in brief: (§1)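 Cells were dispensed onto 384-well flat clear-bottom plates already holding compounds at five concentrations over a 10,000-fold range, using patient-derived ovarian cancer cells at passage under 10. Incubation lasted 72 h at 37 °C in 5% CO2, after which CellTiter-Glo viability data were processed in Breeze. Higher drug sensitivity scores, each a partial area under the percent-inhibition dose-response curve divided by the log of the upper asymptote, mean more sensitive cells.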

FMOC28 = system: FMOC28 (patient-derived low-grade serous ovarian cancer cells)
Method in brief: as §1

FMOC03 = system: FMOC03 (patient-derived mucinous ovarian cancer cells)
Method in brief: as §1

FMOC02_1 = system: FMOC02_1 (patient-derived low-grade serous ovarian cancer cells)
Method in brief: as §1

FMOC02_2 = system: FMOC02_2 (patient-derived low-grade serous ovarian cancer cells)
Method in brief: as §1

FMOC22 = system: FMOC22 (patient-derived mucinous ovarian cancer cells)
Method in brief: as §1

FMOC27 = system: FMOC27 (patient-derived low-grade serous ovarian cancer cells)
Method in brief: as §1

FMOC14 = system: FMOC14 (patient-derived high-grade serous ovarian cancer cells)
Method in brief: as §1

FMOC09 = system: FMOC09 (patient-derived high-grade serous ovarian cancer cells)
Method in brief: as §1

FMOC11 = system: FMOC11 (patient-derived high-grade serous ovarian cancer cells)
Method in brief: as §1

FMOC17 = system: FMOC17 (patient-derived low-grade serous ovarian cancer cells)
Method in brief: as §1

FMOC02_3 = system: FMOC02_3 (patient-derived low-grade serous ovarian cancer cells)
Method in brief: as §1

FMOC06 = system: FMOC06 (patient-derived mucinous ovarian cancer cells)
Method in brief: as §1

FMOC04 = system: FMOC04 (patient-derived high-grade serous ovarian cancer cells)
Method in brief: as §1

FMOC25_2 = system: FMOC25_2 (patient-derived low-grade serous ovarian cancer cells)
Method in brief: as §1

Structure (SMILES)	drug sensitivity score (FMOC24)	drug sensitivity score (FMOC28)	drug sensitivity score (FMOC03)	drug sensitivity score (FMOC02_1)	drug sensitivity score (FMOC02_2)	drug sensitivity score (FMOC22)	drug sensitivity score (FMOC27)	drug sensitivity score (FMOC14)	drug sensitivity score (FMOC09)	drug sensitivity score (FMOC11)	drug sensitivity score (FMOC17)	drug sensitivity score (FMOC02_3)	drug sensitivity score (FMOC06)	drug sensitivity score (FMOC04)	drug sensitivity score (FMOC25_2)
CCN1CCN(c2ccc(Nc3cc(N(C)C(=O)Nc4c(Cl)c(OC)cc(OC)c4Cl)ncn3)cc2)CC1 [Infigratinib]	0.05	0.5	0	0	0	0	0	0	0	0	0	0	0	0	0
O=C(Nc1ccc(OC(F)(F)Cl)cc1)c1cnc(N2CC[C@@H](O)C2)c(-c2cc[nH]n2)c1 [Asciminib]	0.9	0	0	0	1	0	0	0	0	0	0	0	1	0	0.1
CCc1nc(C(N)=O)c(Nc2ccc(N3CCC(N4CCN(C)CC4)CC3)c(OC)c2)nc1NC1CCOCC1 [Gilteritinib]	0.1	0.5	0.1	4.2	3.2	0.1	0	0	1.7	1.9	1.7	4.5	4.5	1.1	4.4
COCC[n+]1c2c(n(Cc3cnccn3)c1C)C(=O)c1ccccc1C2=O [Sepantronium bromide]	33.5	43	39	38.4	30.6	33.2	30.9	42.6	43.7	37.8	36.9	36.1	32.9	38.1	41.4
COC(=O)c1ccc([C@H]2c3[nH]c4ccccc4c3C[C@H](C(=O)OC)N2C(=O)CCl)cc1 [RSL3]	0	0	0	0	0	0	0	0	0	0	0	0	0	0	0
COc1cc(N2CCC(N3CCN(C)CC3)CC2)ccc1Nc1ncc(Cl)c(Nc2ccccc2P(C)(C)=O)n1 [Brigatinib]	2.8	4.8	0.9	4.4	4.3	0.5	1.7	1.7	3.8	1	2.9	3.7	4.7	1.75	6.4
COc1cc2ncnc(Nc3cccc(Cl)c3F)c2cc1OC(=O)N1CCN(C)C[C@H]1C [AZD3759]	0	5	4.8	6.4	5.4	0	2.8	0.5	2.8	3.3	7	5.9	0.2	0.25	4.2
CC(C)Oc1ccc(-c2nn([C@@H](C)c3oc4ccc(F)cc4c(=O)c3-c3cccc(F)c3)c3ncnc(N)c23)cc1F [TGR-1202]	0.2	4.6	0	1.6	1.1	0	0.1	1.7	0	0	3.5	2	0.3	0.05	0.1
COc1cc(C)c(/C=C/C(C)=C/C=C/C(C)=C/C(=O)O)c(C)c1C [Acitretin]	0	0.3	0	0.2	0.7	0	0	0	0	2.8	0	3.4	0.1	0	0
COc1cc(OC)cc(N(CCNC(C)C)c2ccc3ncc(-c4cnn(C)c4)nc3c2)c1 [Erdafitinib]	1.1	0	0	0	0	0	0	0	0	0.7	0.3	2.1	0	0	0.4
CC[C@@](C)(Nc1ccnc(-c2c[nH]c3ncccc23)n1)C(=O)NCC(F)(F)F [Decernotinib]	0	0	0	3.3	1.7	0	0	0	0	0	0	0.4	2.6	0	0
CNS(=O)(=O)Nc1nccc(Cc2c(C)c3ccc(Oc4ncccn4)cc3oc2=O)c1F	0	4.5	0.4	0	0.8	0.7	0	0	0.7	0	0	3.7	0.4	0	5.2
O=c1ncn2nc(Sc3ccc(F)cc3F)ccc2c1-c1c(Cl)cccc1Cl [Neflamapimod]	0.05	1.1	0	0	0	0	0.1	0	1.1	1	0	0	0.3	0	0
C[C@H]1C[C@@H](n2c(Nc3ccc(OC(F)(F)F)cc3)nc3cc(CCC(=O)O)ccc32)CC(C)(C)C1	4.1	0	0	0	0	1.1	0	0	0	0.6	0	0.3	0	0	0
CCOCc1nc2c(N)nc3ccccc3c2n1CC(C)(C)O [Resiquimod]	1.5	0	0	0	0	0	0	0	0.2	0	0	0	0.6	0	0
Cc1cn(-c2cc(NC(=O)c3ccc(C)c(Nc4nccc(-c5cnccn5)n4)c3)cc(C(F)(F)F)c2)cn1 [Radotinib]	1	1.6	0	0	0	0	0	0	0	0	0	0	2.4	0	0.2
Cc1cc(F)c(C(=O)Nc2cccc(-c3nncn3C(C)C)n2)cc1-n1cnc(C2CC2)c1 [Selonsertib]	0.6	0	0	0	0	0	0	0	0	0	1.5	0	0	0	0
CN1CCN(c2ccc(C(=O)Nc3n[nH]c4ccc(Cc5cc(F)cc(F)c5)cc34)c(NC3CCOCC3)c2)CC1 [Entrectinib]	0	2.2	0	0.3	1.5	0	0	0	0.3	1.1	1.9	2.7	1.4	0.1	2.7
CC[C@@H]1[C@H](F)C(=O)N[C@@H]1COc1nccc2cc(C(N)=O)c(OC)cc12	0	0	0	2.6	0.6	0	0.5	0	0	0	0	5.2	0	0	4
O=C(CCNC(=O)c1ccc(OC(F)(F)F)cc1)N[C@@H]1CCCc2ccccc21 [ML390]	0.8	2.2	4.6	5.3	3	4.8	3.4	0	0	3.6	2	4.2	0.3	2.9	6
CN1CCC(COc2cnc(-c3cccc(Cn4nc(-c5cccc(C#N)c5)ccc4=O)c3)nc2)CC1 [Tepotinib]	1.9	3.4	0.2	0.3	1.6	0	0	0	0	0	0.5	3.7	0	0.75	2.3
Cc1ccc(C(=O)Nc2cccc(C(F)(F)F)c2)cc1Nc1nc(-c2cccnc2)nc2c1cnn2C [NVP-BHG712]	7.9	4.8	5.2	6.2	3	3.4	1.6	3.3	3	4.7	4.6	3.3	7.3	0	0
CC(O)c1cc(C(=O)N[C@@H](C)Cn2ccc(-c3ccc(C#N)c(Cl)c3)n2)n[nH]1 (stereo not given in full) [ODM-201]	0	0	0.4	0	0	0	0	0	0.9	0	0	0	0.7	0	0.5
CC[C@]12C=CCN3CC[C@@]4(c5cc([C@@]6(C(=O)OC)C[C@@H]7C[C@@H](C(C)(F)F)CN(Cc8c6[nH]c6ccccc86)C7)c(OC)cc5N(C)[C@H]4[C@@](O)(C(=O)OC)[C@@H]1OC(C)=O)[C@@H]32 [Vinflunine]	0	1.3	1.7	3.6	3.2	0.9	0.6	0	3.6	3.4	5.1	5.8	0.8	4.1	3.6
